Values joined by “and” are separate entries in the source; they are usually repeats but may differ in a detail not shown here. Identical values can stand only once.

By IC50 is commonly meant the point on the concentration scale where inhibition reaches its midpoint.

One experiment concerns the target PKCβ1 (Homo sapiens, UniProt P05771). Kind of experiment: In vitro kinase assay, PKCβ1 kinase activity. The format is biochemical. The note with it: 10 μM ATP, three-fold serial dilution from 50 μM, Fig. 6d.
A further experiment addresses PKC mu (PKCm/PRKD1) (Homo sapiens, UniProt Q15139). Kind of experiment: In vitro kinase assay, PKC mu. The format is biochemical. To be noted: 10 μM ATP. From the text: (§1) Supplementary Table 4. In vitro kinase assay showing the IC 50 concentration of ENDX and
(§2) of the 12 PKC family members.
(§3) (1 picture or pasted object on this page, not shown here)

A further experiment has as its system T47D-LTED cells. Kind of experiment: Crystal violet cell viability assay, T47D-LTED. The format is cell-based, human. To be noted: CSS media, six days; 5 µM. The method, then: Cells were plated at a density of 2000 cells per well. Cell viability of (i) vehicle or drug treated MCF7AC1 and T47D-LTED cells in CSS medium, (ii) siNT or siPKCβ-transfected MCF7AC1 cells in CSS medium and (iii) T47D cells in FBS versus CSS medium were analyzed by crystal violet staining assay after 6 days of treatment or siRNA transfection as previously described. Cell viability was calculated as the average absorbance of the drug treated cells divided by the average absorbance of the vehicle treated cells × 100.
Supplementary Figure 6. […] Cell viability is assessed by the crystal violet assay. b, MCF7AC1 cells were co-treated with vehicle control or 0.01, 0.1 and 5 µM MK-2206 and IncuCyte Annexin V green and NucLight rapid red reagents in CSS medi um for 48 hours. […]
Cells were plated at a density of 2000 cells per well. c, MCF7AC1 cells were treated with vehicle control or 0.01, 0.1 and 5 µM MK-2206 in CSS medium for 24 hours. […] Cell viability is assessed by the crystal violet assay. f, Parental T47D and T47D-LTED cells were processed for protein lysates. […] Cell viability is assessed by the crystal violet assay. h, T47D-LTED cells were co-treated with vehicle control or 0.01, 0.1 and 5 µM MK -2206 and IncuCyte Annexin V green and NucLight rapid red reagents in CSS medium for 48 hours. […] Cell viability is assessed by the crystal violet assay. […]

The next experiment concerns MDAMB231 cells. Kind of experiment: IncuCyte Annexin V apoptosis assay, MDAMB231. It is filed as cell-based, human. To be noted: CSS medium, 48 h, 0–10 µM tested; no apoptosis below the highest concentration. The method, then:
Supplementary Figure 8. ENDX neither induces apoptosis nor inhibit growth of ER - breast cancer cells. a, MDAMB231 cells grown in CSS medium were co -treated with vehicle control or the indicated ENDX concentrations, IncuCyte Annexin V green and NucLight red reagents in CSS medium for 48 hours. The apoptosis graphs are presented as the green object count […]
software. Cells were plated at a density of 2000 cells per well. Data represents the mean of six

A further experiment deals with MCF7AC1 cells. Kind of experiment: IncuCyte Annexin V apoptosis assay, MCF7AC1. The format is cell-based, human. To be noted: CSS medium, 48 h. As for the experimental part:
MCF7AC1 and T47D-LTED cells were plated at a density of 2000 cells per well in CSS medium for 24 h. Cells were then co-treated for 48 h with vehicle or drug, IncuCyte Annexin V green reagent (#4642, 1:300), an early-stage apoptosis marker, and IncuCyte NucLight rapid red reagent (#4717, 1:500), a dye that stains all cell nuclei red, in CSS medium. MCF7AC1^caAKT cells were plated at a cell density of 2000 cells per well in CSS medium in the absence or presence of cumate for 48 h and then co-treated with vehicle or drug, Annexin V green and NucLight rapid red reagents in the absence or presence of cumate for an additional 48 h in CSS medium.

In another experiment the target is PKC thetha (PKCq) (Homo sapiens, UniProt Q04759). Kind of experiment: In vitro kinase assay, PKC thetha. It is filed as biochemical. The note with it: 10 μM ATP.
From the text: . The IC50 concentrations of these drugs in inhibiting PKC kinase activity are provided in Supplementary Table 4.
as §1, §2
*: not available due to no inhibition or compound activity that could not be fit to an IC50 curve.
Staurosporine serves as the positive control.
as §3

The subject of experiment [1] is AKT^Ser473 phosphorylation in T47D-LTED cells. Kind of experiment: Immunoblot of pAKT^Ser473, T47D-LTED. It is filed as cell-based, human. The note with it: CSS medium, 24 h; 5 µM. The method, then: Protein lysates were prepared using the RIPA lysis buffer system (ChemCruz #sc-24948) and quantified using the DC^TM Protein Assay reagents (Bio-Rad #5000112). Equal amounts of protein lysates were separated on 10% Criterion gels (Bio-Rad #3450112), transferred to PVDF membranes (Bio-Rad #1620177), blocked in TBST-5% milk and probed with primary antibodies listed in Supplementary Table 5, at the indicated dilutions. Membranes were incubated with HRP-conjugated anti-rabbit (CST #7074) or anti-mouse (CST #7076) secondary antibodies and visualized using chemiluminescent West Pico (Thermo Scientific #34580) or West Femto (Thermo Scientific #34096) reagents and a Li-Cor Odyssey® XF imager. Protein lysates from the MCF7AC1 xenograft model were obtained from a previous study. Quantitation of the protein bands signal intensity was performed using the NIH ImageJ image analysis software (https://imagej.nih.gov/ij///index.html). For the quantitation of the phospho protein levels, we first normalized total protein levels to β-actin loading control and used these values to normalize the phospho protein levels and compared change in protein expression levels relative to vehicle control normalized to 1.0. For the quantitation of total protein levels, we normalized the total protein levels to β-actin and compared change in expression levels relative to vehicle control normalized to 1.0. […]

Sequence of PKCβ1 (P05771 whole entry): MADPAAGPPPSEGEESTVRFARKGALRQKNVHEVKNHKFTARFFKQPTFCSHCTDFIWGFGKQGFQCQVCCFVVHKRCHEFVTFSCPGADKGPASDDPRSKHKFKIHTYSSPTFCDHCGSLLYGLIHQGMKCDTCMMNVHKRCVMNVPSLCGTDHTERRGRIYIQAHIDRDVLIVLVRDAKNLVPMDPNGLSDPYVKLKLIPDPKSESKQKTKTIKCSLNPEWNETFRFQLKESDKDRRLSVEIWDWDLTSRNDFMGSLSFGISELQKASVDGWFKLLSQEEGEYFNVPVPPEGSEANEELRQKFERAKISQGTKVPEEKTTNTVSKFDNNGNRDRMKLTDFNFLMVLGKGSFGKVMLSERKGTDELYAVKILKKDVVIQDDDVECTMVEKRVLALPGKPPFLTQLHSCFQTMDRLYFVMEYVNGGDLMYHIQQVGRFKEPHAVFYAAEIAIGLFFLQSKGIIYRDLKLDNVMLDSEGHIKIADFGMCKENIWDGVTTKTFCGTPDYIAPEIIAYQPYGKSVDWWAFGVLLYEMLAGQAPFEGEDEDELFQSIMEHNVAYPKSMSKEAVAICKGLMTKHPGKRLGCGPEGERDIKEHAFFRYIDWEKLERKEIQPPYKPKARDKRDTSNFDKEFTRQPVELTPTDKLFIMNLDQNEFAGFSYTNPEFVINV
Sequence of PKC mu (PKCm/PRKD1) (Q15139 whole entry): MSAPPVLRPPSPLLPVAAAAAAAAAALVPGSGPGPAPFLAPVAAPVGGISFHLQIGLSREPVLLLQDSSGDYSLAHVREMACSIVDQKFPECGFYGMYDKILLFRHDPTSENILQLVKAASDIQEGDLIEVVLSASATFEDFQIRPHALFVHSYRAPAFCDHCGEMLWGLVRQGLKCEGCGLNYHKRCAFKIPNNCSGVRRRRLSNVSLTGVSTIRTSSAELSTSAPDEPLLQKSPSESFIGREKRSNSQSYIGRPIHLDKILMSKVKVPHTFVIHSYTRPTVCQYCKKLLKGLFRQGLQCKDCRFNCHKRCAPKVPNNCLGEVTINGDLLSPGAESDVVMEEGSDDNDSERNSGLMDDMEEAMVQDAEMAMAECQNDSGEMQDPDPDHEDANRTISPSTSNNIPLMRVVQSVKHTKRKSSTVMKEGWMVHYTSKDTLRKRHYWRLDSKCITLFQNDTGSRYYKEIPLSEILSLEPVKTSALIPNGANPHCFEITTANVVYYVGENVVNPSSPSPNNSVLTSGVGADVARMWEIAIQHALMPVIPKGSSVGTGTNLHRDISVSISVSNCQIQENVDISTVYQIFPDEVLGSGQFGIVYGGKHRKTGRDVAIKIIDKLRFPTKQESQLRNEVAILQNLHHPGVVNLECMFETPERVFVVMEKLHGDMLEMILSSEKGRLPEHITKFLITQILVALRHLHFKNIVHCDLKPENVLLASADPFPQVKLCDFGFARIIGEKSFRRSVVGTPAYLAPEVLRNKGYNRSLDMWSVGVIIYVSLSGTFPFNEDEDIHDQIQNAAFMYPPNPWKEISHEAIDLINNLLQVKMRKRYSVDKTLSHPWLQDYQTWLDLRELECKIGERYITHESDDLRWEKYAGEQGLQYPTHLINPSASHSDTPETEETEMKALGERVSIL
Sequence of PKC thetha (PKCq) (Q04759 whole entry): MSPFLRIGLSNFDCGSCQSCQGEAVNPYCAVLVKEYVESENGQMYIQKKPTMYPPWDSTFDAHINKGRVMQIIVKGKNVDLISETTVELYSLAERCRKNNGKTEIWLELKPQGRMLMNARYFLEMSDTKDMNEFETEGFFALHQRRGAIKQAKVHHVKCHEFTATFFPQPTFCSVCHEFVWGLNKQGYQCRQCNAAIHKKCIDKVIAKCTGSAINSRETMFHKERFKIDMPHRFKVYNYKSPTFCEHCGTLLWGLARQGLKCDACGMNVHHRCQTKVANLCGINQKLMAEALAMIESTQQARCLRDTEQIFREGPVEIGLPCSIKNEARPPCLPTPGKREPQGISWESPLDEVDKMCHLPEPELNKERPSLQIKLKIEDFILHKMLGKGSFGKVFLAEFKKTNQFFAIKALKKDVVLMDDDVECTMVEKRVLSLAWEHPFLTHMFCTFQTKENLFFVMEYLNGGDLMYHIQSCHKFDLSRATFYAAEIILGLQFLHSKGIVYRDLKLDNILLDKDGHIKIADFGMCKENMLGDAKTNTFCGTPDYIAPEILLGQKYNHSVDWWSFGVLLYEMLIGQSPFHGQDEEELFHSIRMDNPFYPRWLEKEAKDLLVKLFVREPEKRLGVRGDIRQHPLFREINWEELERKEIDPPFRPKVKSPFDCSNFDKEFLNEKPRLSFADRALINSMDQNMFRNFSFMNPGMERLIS

As for `CC/C(=C(\c1ccc(O)cc1)c1ccc(OCCNC)cc1)c1ccccc1` [ENDX, Z-endoxifen], the half-inhibitory concentration (IC50) against PKCβ1 was 0.357 µM and 0.36 µM; against PKC mu (PKCm/PRKD1), 31.6 µM; on PKC thetha (PKCq), 41.8 µM. Also, in the experiment with T47D-LTED cells, the Effect on growth entry is recorded as “inhibited growth”. In addition, the “Concentration at which apoptosis was induced” value with MDAMB231 cells is 10 µM. In addition, the “Concentrations that induced apoptosis” value with MCF7AC1 cells (0 to 10 µM tested) is ≥ 2.5 µM. Also, the Effect on apoptosis result in the experiment with MCF7AC1 cells (ENDX 5 µM, TAM 0.1 µM, ICI 0.1 µM) is on record as “induced apoptosis”. Moreover, the “Effect on AKT^Ser473 phosphorylation” value in experiment [1] was “attenuated AKT^Ser473 phosphorylation”.

Values taken from article PMC10730845, “Endoxifen downregulates AKT phosphorylation through protein kinase C beta 1 inhibition in ERα+ breast cancer” (NPJ Breast Cancer, 2023).
